Measurements from US20250186463A1, “ABIRATERONE DECANOATE PRODRUGS AND USE IN THERAPY” (PROPELLA THERAPEUTICS, INC., priority 2022, published 2025).
Marks after values point to notes of the source that are not given here.

Key:
[1] = tested on: serum progesterone; experiment: Phase 1/2a study: serum progesterone; assay type: in vivo, human
Protocol: (§1) This is a Phase 1/2a, Open-label, Multicenter Study of Intramuscular Abiraterone Decanoate Depot in Patients with Advanced Prostate Cancer.
(§2) Formulations and dosing regimen: The formulation used in the study (abiraterone decanoate for intramuscular [i.m.] injection) is a solution formulation of abiraterone decanoate at a concentration of 180 mg/mL and will be provided as a 10 mL vial containing 990 mg of abiraterone decanoate in 5.5 mL of solution. See further details of the formulations in Example 2 (for each milliliter: Abiraterone Decanoate, about 180 mg/mL; Benzyl Alcohol, about 100 mg/mL; Benzyl Benzoate, about 200 mg/mL; and Corn oil, q.s. to 1 mL). Abiraterone Decanoate will be administered as an i.m. injection every 84 days (±3 days). Dose escalation will proceed with a modified Fibonacci sequence. Based on emerging data, intermediate doses may be evaluated.
(§3) Study Design: This is a Phase 1/2a, Open-label, Multicenter Study of Intramuscular Abiraterone Decanoate Depot in Patients with Advanced Prostate Cancer. In Phase 1, all patients will receive i.m. Abiraterone Decanoate depot in 84-day treatment cycles combined with daily oral prednisone or dexamethasone. In Phase 2a, patients will be randomized 1:1 and treated with i.m. Abiraterone Decanoate depot in 84-day treatment cycles in combination with dexamethasone (Arm A) or abiraterone acetate daily+prednisone (Arm B). In both Phases, patients will undergo scheduled periodic assessments of serum testosterone levels. Participants may continue treatment until they meet any discontinuation criteria outlined in the protocol.
(§4) Pharmacodynamic Analysis: Determination of Prostate Specific Antigen (PSA), serum testosterone, dehydroepiandrosterone (DHEA), dehydroepiandrosterone sulfate (DHEA-S), androstenedione, dihydrotestosterone (DHT), progesterone, cortisol, adrenocorticotropic hormone (ACTH), corticosterone, 11-dexoycorticosterone (11-DOC) and 11-deoxycortisol.
(§5) Based on the available data, the recommended dose for Phase 2 is about 1260 mg abiraterone decanoate once every three months (12 weeks). All cohorts 1 and 2 in this clinical study were treated with prednisone, 5 mg orally once or twice daily; and all cohorts 3-5 were treated with dexamethasone, 0.5 mg orally once daily. The results shown herein for these cohorts should be understood accordingly.
(§6) See also Table 3B below. […] See also FIG. 11B for the absolute serum progesterone levels for cohorts 4 and 5, with the LLOQ being 1.59 nM. It should be noted that the maximum serum progesterone level observed for cohorts 1-3 is 2.5 nM. FIGS. 3F and 3G show the serum 11-deoxycorticosterone and corticosterone response in cohorts 3, 4, and 5, the trend is similar to that observed for progesterone levels above. See a summary shown in the Table 3C below for the first cycle.

[2] = tested on: serum corticosterone; experiment: Phase 1/2a study: serum corticosterone; assay type: in vivo, human
Protocol: as §1, §2, §3, §4, §5, §6

[3] = Phase 1/2a study: safety and tolerability; assay type: in vivo, human
Description: At each dose cohort, 3 to 4 patients will be enrolled. If none of the patients experience a dose-limiting toxicity (DLT) in the first 28 days (the DLT period) the dose will be escalated in the next cohort. A DLT will be defined as any of the following using on the Common Terminology Criteria for Adverse Events (CTCAE) criteria v5.0 regardless of attribution to the study drug unless it is clearly due to the patient's underlying disease or extraneous causes:
Safety Analysis: Adverse events will be summarized by severity, seriousness, and relationship to study treatments. Laboratory data, vital signs, PFTs and ECGs will be compared to baseline values.

[4] = Animal studies of intramuscular abiraterone decanoate: liver toxicity; assay type: in vivo; settings: intramuscular administration, tested doses

## CCCCCCCCCC(=O)O[C@H]1CC[C@@]2(C)C(=CC[C@@H]3[C@@H]2CC[C@]2(C)C(c4cccnc4)=CC[C@@H]32)C1 [abiraterone decanoate]
[1]; 720 mg (N = 4), Day 14
  Progesterone Changes during cycle 1, Percent (%): −1%
[1]; 720 mg (N = 4), Day 28
  Progesterone Changes during cycle 1, Percent (%): −2%
[1]; 720 mg (N = 4), Day 56
  Progesterone Changes during cycle 1, Percent (%): 0%
[1]; 720 mg (N = 4), Day 84
  Progesterone Changes during cycle 1, Percent (%): 0%
[1]; 1,260 mg (N = 6), Day 14
  Progesterone Changes during cycle 1, Percent (%): 20%
[1]; 1,260 mg (N = 6), Day 28
  Progesterone Changes during cycle 1, Percent (%): 35%
[1]; 1,260 mg (N = 6), Day 56
  Progesterone Changes during cycle 1, Percent (%): 0%
[1]; 1,260 mg (N = 6), Day 84
  Progesterone Changes during cycle 1, Percent (%): 0%
[1]; 1,800 mg (N = 8), Day 14
  Progesterone Changes during cycle 1, Percent (%): 165%
[1]; 1,800 mg (N = 8), Day 28
  Progesterone Changes during cycle 1, Percent (%): 86%
[1]; 1,800 mg (N = 8), Day 56
  Progesterone Changes during cycle 1, Percent (%): 12%
[1]; 1,800 mg (N = 8), Day 84
  Progesterone Changes during cycle 1, Percent (%): 13%
[1]; Cohort 1, 180 mg i.m., Study Day 1 (baseline)
  Serum Progesterone (% CFB): 0%
[1]; Cohort 1, 180 mg i.m., Study Day 14
  Serum Progesterone (% CFB): 0%
[1]; Cohort 1, 180 mg i.m., Study Day 28
  Serum Progesterone (% CFB): 8%
[1]; Cohort 1, 180 mg i.m., Study Day 56
  Serum Progesterone (% CFB): 0%
[1]; Cohort 1, 180 mg i.m., Study Day 70
  Serum Progesterone (% CFB): 0%
[1]; Cohort 2, 360 mg i.m., Study Day 1 (baseline)
  Serum Progesterone (% CFB): 0%
[1]; Cohort 2, 360 mg i.m., Study Day 14
  Serum Progesterone (% CFB): 37%
[1]; Cohort 2, 360 mg i.m., Study Day 28
  Serum Progesterone (% CFB): 8%
[1]; Cohort 2, 360 mg i.m., Study Day 56
  Serum Progesterone (% CFB): 0%
[1]; Cohort 2, 360 mg i.m., Study Day 84
  Serum Progesterone (% CFB): 0%
[1]; Cohort 2, 360 mg i.m., Study Day 168
  Serum Progesterone (% CFB): 0%
[1]; Cohort 2, 360 mg i.m., Study Day 252
  Serum Progesterone (% CFB): 0%
[1]; Cohort 3, 720 mg i.m., Study Day 1 (baseline)
  Serum Progesterone (% CFB): 0%
[1]; Cohort 3, 720 mg i.m., Study Day 14
  Serum Progesterone (% CFB): −1%
[1]; Cohort 3, 720 mg i.m., Study Day 28
  Serum Progesterone (% CFB): −2%
[1]; Cohort 3, 720 mg i.m., Study Day 56
  Serum Progesterone (% CFB): 0%
[1]; Cohort 3, 720 mg i.m., Study Day 84
  Serum Progesterone (% CFB): 0%
[1]; Cohort 3, 720 mg i.m., Study Day 168
  Serum Progesterone (% CFB): 6%
[1]; Cohort 3, 720 mg i.m., Study Day 224
  Serum Progesterone (% CFB): 0%
[1]; Cohort 3, 720 mg i.m., Study Day 252
  Serum Progesterone (% CFB): 0%
[1]; Cohort 4, 1260 mg i.m., Study Day 1 (baseline)
  Serum Progesterone (% CFB): 0%
[1]; Cohort 4, 1260 mg i.m., Study Day 14
  Serum Progesterone (% CFB): 20%
[1]; Cohort 4, 1260 mg i.m., Study Day 28
  Serum Progesterone (% CFB): 35%
[1]; Cohort 4, 1260 mg i.m., Study Day 42
  Serum Progesterone (% CFB): 0%
[1]; Cohort 4, 1260 mg i.m., Study Day 56
  Serum Progesterone (% CFB): 0%
[1]; Cohort 4, 1260 mg i.m., Study Day 70
  Serum Progesterone (% CFB): 22%
[1]; Cohort 4, 1260 mg i.m., Study Day 84
  Serum Progesterone (% CFB): 0%
[1]; Cohort 4, 1260 mg i.m., Study Day 112
  Serum Progesterone (% CFB): 6%
[1]; Cohort 4, 1260 mg i.m., Study Day 140
  Serum Progesterone (% CFB): 0%
[1]; Cohort 4, 1260 mg i.m., Study Day 168
  Serum Progesterone (% CFB): 1%
[1]; Cohort 4, 1260 mg i.m., Study Day 224
  Serum Progesterone (% CFB): 0%
[1]; Cohort 4, 1260 mg i.m., Study Day 252
  Serum Progesterone (% CFB): 0%
[1]; Cohort 5, 1800 mg i.m., Study Day 1 (baseline)
  Serum Progesterone (% CFB): 0%
[1]; Cohort 5, 1800 mg i.m., Study Day 14
  Serum Progesterone (% CFB): 165%
[1]; Cohort 5, 1800 mg i.m., Study Day 28
  Serum Progesterone (% CFB): 86%
[1]; Cohort 5, 1800 mg i.m., Study Day 42
  Serum Progesterone (% CFB): 0%
[1]; Cohort 5, 1800 mg i.m., Study Day 56
  Serum Progesterone (% CFB): 12%
[1]; Cohort 5, 1800 mg i.m., Study Day 70
  Serum Progesterone (% CFB): 0%
[1]; Cohort 5, 1800 mg i.m., Study Day 84
  Serum Progesterone (% CFB): 8%
[1]; Cohort 5, 1800 mg i.m., Study Day 140
  Serum Progesterone (% CFB): 0%
[1]; Cohort 5, 1800 mg i.m., Study Day 168
  Serum Progesterone (% CFB): −7%
[1]; Cohort 5, 1800 mg i.m., Study Day 196
  Serum Progesterone (% CFB): 52%
[1]; Cohort 5, 1800 mg i.m., Study Day 224
  Serum Progesterone (% CFB): −7%
[1]; Cohort 5, 1800 mg i.m., Study Day 252
  Serum Progesterone (% CFB): 0%
[1]; Patient 1, cohort 1, 180 mg, FIG. 5
  progesterone change from baseline: no progesterone increase from baseline
[1]; Patient 2, cohort 2, 360 mg, FIG. 6
  transient up stream steroid (progesterone) increase from baseline: returned to baseline
[1]; all cohorts
  increases of progesterone levels during the second cycle: no significant increases
[1]; all cohorts (180-1800 mg)
  progesterone changes from baseline: not significant
[1]; cohort 5 (1800 mg), after first administration
  time at which progesterone level returned to baseline: ~6 week
[1]; cohorts 1-3 (180, 360, 720 mg)
  maximum serum progesterone level observed: 2.5 nM
[1]; patient 02-1403, Cohort 4, 1260 mg, mCRPC, Visit C4D28, assay LLOQ = 1.59 nM
  Progesterone at Visit Day (nM): <LLOQ
[1]; patient 02-1405, Cohort 4, 1260 mg, mCRPC, Visit C1D56, assay LLOQ = 1.59 nM
  Progesterone at Visit Day (nM): <LLOQ
[1]; patient 02-1504, Cohort 5, 1800 mg, mCRPC, Visit C1D28, assay LLOQ = 1.59 nM
  Progesterone at Visit Day (nM): <LLOQ
[1]; patient 04-1406, Cohort 4, 1260 mg, mCSPC, Visit C1D56, average of Day 28 and Day 70 values
  Progesterone at Visit Day (nM): 2.90† nM
[1]; patient 04-1503, Cohort 5, 1800 mg, mCSPC, Visit C1D84, assay LLOQ = 1.59 nM
  Progesterone at Visit Day: 2.54 nM
[1]; patient 04-1506, Cohort 5, 1800 mg, mCRPC, Visit C1D28, assay LLOQ = 1.59 nM
  Progesterone at Visit Day (nM): <LLOQ
[1]; patient 06-1401, Cohort 4, 1260 mg, mCRPC, Visit C3D84, assay LLOQ = 1.59 nM
  Progesterone at Visit Day (nM): <LLOQ
[1]; patient 06-1402, Cohort 4, 1260 mg, mCRPC, Visit C4D28, assay LLOQ = 1.59 nM
  Progesterone at Visit Day (nM): <LLOQ
[1]; patient 06-1404, Cohort 4, 1260 mg, mCSPC, Visit C2D84, assay LLOQ = 1.59 nM
  Progesterone at Visit Day (nM): <LLOQ
[1]; patient 06-1501, Cohort 5, 1800 mg, mCRPC, Visit C1D84, assay LLOQ = 1.59 nM
  Progesterone at Visit Day (nM): <LLOQ
[1]; patient 06-1502, Cohort 5, 1800 mg, mCSPC, Visit C2D84, assay LLOQ = 1.59 nM
  Progesterone at Visit Day (nM): <LLOQ
[2]; 720 mg (N = 4), Day 14
  Corticosterone Changes during cycle 1, Percent (%): 48%
[2]; 720 mg (N = 4), Day 28
  Corticosterone Changes during cycle 1, Percent (%): 27%
[2]; 720 mg (N = 4), Day 56
  Corticosterone Changes during cycle 1, Percent (%): 9%
[2]; 720 mg (N = 4), Day 84
  Corticosterone Changes during cycle 1, Percent (%): −33%
[2]; 1,260 mg (N = 6), Day 14
  Corticosterone Changes during cycle 1, Percent (%): 184%
[2]; 1,260 mg (N = 6), Day 28
  Corticosterone Changes during cycle 1, Percent (%): 490%
[2]; 1,260 mg (N = 6), Day 56
  Corticosterone Changes during cycle 1, Percent (%): 19%
[2]; 1,260 mg (N = 6), Day 84
  Corticosterone Changes during cycle 1, Percent (%): 32%
[2]; 1,800 mg (N = 8), Day 14
  Corticosterone Changes during cycle 1, Percent (%): 455%
[2]; 1,800 mg (N = 8), Day 28
  Corticosterone Changes during cycle 1, Percent (%): 259%
[2]; 1,800 mg (N = 8), Day 56
  Corticosterone Changes during cycle 1, Percent (%): 54%
[2]; 1,800 mg (N = 8), Day 84
  Corticosterone Changes during cycle 1, Percent (%): 109%
[3]; Phase 1 study
  increases in upstream steroids from CYP17A1 hydroxylase, compared with Zytiga: far less than observed with Zytiga
[3]; Phase 1 study, to date
  safety issues relating to mineralocorticoid excess: no safety issues relating to mineralocorticoid excess
[3]; all cohorts 1-5
  safety profile: excellent
[3]; in vivo
  tolerability in human subjects: generally well tolerated
[4]
  liver toxicity: no liver toxicity was observed
